Read-outs that look alike come from different tables or passages of the source.
Experiments:
[1] = molecular target: T1, Human PI3K alpha (Homo sapiens, UniProt P42336); assay: Human PI3K alpha enzyme assay (HTRF); assay type: biochemical; settings: for IC50: read-out: PI3Kalpha IC50
T1 construct: His (N); host or cells: SF9 insect cells (baculovirus)
Description: (§1) The catalytic subunits of PI3Ks are cloned into either pDEST8(p110 alpha) or pDEST10(p110beta, p110delta, and p110gamma) as N-terminal His tagged fusion proteins using the Gateway system (Invitrogen, catalog#11804-010 for pDEST8 and 11806-015 for pDEST10). The sequences are verified before recombinant protein expression using the Baculovirus Expression System with Gateway® Technology. The accession numbers for the subunits are as follows: • p110 alpha (GB:U79143) • p110beta (GB: S67334) • p110delta (GB: U86453) • p110gamma (GB: X83368) • The regulatory subunits of PI3Ks are cloned into pDEST8 as un-tagged protein using the Gateway system (Catalog#11804-010). The sequences are verified before recombinant protein expression using the Baculovirus Expression System with Gateway® Technology. The accession numbers for the subunits are as following: • p85 alpha (GB: BC030815) • p101(GB: AB028925) • VPS34 (accession number GB:BC033004) is cloned into pDEST20—Thombin as N-terminal GST tagged fusion proteins using the Gateway system (Invitrogen, catalog#11804-013). The sequences are verified before recombinant protein expression using the Baculovirus Expression System with Gateway® Technology.
(§2) For expression of the p110 complexes, the p85 (MOI of 4) is co-infected with p110 alpha, beta, and delta respectively (1MOI) in SF9 cells and harvested at 60 hours post co-infection. P110 gamma was infected at 1 MOI and harvested at 60 hours post infection.
(§3) For purification, PI3Ks are purified by Ni-NTA Agarose (Qiagen #30250) followed by Mono Q 10/100 GL (Ge Healthcare #17-5167-01). VPS34 is purified by Glutathione Sepharose 4 Fast Flow (GE Healthcare #17-5132-03) followed by HiTrap Q (GE Healthcare #17-1153-01).
1) Human PI3K alpha enzyme assay method
(§4) 0.5 uL compounds in DMSO are added to wells of a 384 well microtitre plate (Corning 3575). At room temperature: 10 ul PI3K reaction buffer (50 mM Hepes, 5 mM DTT, 150 mM NaCl, 10 mM beta-glycerophosphate, 10 mM MgCl2, 0.25 mM sodium cholate and 0.001% CHAPS, pH 7.00) containing ATP (25 uM, Promega) is added followed immediately by 10 ul PI3K reaction buffer containing di-C8 P1(4,5)P2 (3.5 uM, CellSignals) and PI3Kalpha (0.4875 nM, Millennium Protein Sciences Group) and the mixture is incubated with shaking at room temperature for 30 minutes. Then 5 ul PI3K stop mix (50 mM Hepes, 5 mM DTT, 150 mM NaCl, 0.01% Tween-20, 15 mM EDTA and 25 nM biotin-PI(3,4,5)P3 (Echelon) is added to quench the reaction followed immediately by addition of 5 ul HTRF detection mix (50 mM Hepes, 5 mM DTT, 150 mM NaCl, 0.01% Tween-20, 40 mM KF, 1.0 nM GST:GRP-1 PH domain (Millennium Protein Sciences Group), 15 nM Streptavidin-XL (CisBio) and 0.375 nM anti-GST Eu++ antibody (CisBio) at pH 7.00). The plates are then incubated for 1 hour at room temperature with shaking and then read on a BMG PheraStar Plus reader.
(§5) For the assay methods described above, test compound percent inhibition, at various concentrations, is calculated relative to control (DMSO and EDTA) treated samples. Compound concentration versus percent inhibition curves are fitted to generate IC50 values. One skilled in the art will appreciate that the values generated either as percentage inhibition at a single concentration or IC50 values are subject to experimental variation.

[2] = molecular target: T2, Human PI3K beta (Homo sapiens, UniProt P42338); assay: Human PI3K beta enzyme assay (HTRF); assay type: biochemical; settings: for IC50: read-out: PI3 Kbeta IC50
T2 construct: His (N); host or cells: SF9 insect cells (baculovirus)
T2 sequence (P42338 whole entry): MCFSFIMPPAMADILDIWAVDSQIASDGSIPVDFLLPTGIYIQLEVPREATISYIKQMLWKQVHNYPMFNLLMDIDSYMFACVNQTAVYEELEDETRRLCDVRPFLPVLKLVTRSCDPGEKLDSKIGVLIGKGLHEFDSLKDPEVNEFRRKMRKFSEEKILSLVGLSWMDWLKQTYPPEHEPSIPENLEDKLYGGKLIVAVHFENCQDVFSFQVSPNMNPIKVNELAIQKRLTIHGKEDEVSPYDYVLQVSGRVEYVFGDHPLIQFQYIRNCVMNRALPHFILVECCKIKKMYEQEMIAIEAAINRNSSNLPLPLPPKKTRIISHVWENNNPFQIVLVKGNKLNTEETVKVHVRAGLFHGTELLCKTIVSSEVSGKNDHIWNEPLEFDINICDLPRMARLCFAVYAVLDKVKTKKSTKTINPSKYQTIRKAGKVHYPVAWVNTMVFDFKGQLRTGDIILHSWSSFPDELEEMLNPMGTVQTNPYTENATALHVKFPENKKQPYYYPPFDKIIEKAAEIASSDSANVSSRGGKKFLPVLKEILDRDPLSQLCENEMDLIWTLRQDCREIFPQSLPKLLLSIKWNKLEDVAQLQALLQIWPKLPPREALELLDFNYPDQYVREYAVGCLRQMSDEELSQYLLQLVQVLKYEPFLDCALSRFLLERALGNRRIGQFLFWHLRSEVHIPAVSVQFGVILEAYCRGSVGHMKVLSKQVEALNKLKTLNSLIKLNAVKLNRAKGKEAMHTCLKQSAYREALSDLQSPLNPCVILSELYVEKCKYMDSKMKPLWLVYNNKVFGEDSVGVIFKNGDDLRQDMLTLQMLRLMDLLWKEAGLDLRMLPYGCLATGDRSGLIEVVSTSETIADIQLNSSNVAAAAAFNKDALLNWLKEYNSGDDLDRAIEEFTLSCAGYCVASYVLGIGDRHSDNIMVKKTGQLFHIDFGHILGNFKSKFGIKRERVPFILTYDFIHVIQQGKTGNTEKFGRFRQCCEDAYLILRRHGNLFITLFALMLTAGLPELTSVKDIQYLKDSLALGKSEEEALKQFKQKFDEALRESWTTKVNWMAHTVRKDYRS
T2 sequence (P27986 whole entry partner): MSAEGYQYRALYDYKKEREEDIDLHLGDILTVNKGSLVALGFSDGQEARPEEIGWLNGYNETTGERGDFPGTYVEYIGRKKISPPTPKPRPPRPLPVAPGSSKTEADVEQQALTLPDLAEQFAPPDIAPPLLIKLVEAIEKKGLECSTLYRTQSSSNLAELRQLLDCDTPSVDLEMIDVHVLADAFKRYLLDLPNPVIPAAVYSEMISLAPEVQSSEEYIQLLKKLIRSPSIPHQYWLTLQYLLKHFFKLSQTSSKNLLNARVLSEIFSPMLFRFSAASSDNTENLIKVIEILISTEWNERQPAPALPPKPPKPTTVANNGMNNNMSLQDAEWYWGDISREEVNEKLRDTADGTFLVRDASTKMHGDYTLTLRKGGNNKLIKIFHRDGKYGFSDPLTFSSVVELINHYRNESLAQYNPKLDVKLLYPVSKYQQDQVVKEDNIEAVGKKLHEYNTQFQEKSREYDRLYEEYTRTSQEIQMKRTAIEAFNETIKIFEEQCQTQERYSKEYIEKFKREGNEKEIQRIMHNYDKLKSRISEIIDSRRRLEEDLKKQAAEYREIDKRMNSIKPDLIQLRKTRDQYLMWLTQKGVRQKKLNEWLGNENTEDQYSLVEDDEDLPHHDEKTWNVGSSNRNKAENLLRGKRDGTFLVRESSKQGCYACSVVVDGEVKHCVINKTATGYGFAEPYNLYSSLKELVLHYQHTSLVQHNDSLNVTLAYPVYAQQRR
Description: as §1, §2, §3, §4
2) Human PI3K beta, delta and gamma isoforms are tested using the procedure described for PI3K alpha above but with the following changes: PI3K beta (5.25 nM), PI3K delta (0.75 nM) and PI3K gamma (5 nM). All isoforms supplied by Millennium Protein Science Group.
as §5

[3] = at a 1.1 μM concentration, read-out: PI3Kα Percent Inhibition
[4] = at a 1.1 μM concentration, read-out: PI3β Percent Inhibition

T1 sequence (P42336 whole entry): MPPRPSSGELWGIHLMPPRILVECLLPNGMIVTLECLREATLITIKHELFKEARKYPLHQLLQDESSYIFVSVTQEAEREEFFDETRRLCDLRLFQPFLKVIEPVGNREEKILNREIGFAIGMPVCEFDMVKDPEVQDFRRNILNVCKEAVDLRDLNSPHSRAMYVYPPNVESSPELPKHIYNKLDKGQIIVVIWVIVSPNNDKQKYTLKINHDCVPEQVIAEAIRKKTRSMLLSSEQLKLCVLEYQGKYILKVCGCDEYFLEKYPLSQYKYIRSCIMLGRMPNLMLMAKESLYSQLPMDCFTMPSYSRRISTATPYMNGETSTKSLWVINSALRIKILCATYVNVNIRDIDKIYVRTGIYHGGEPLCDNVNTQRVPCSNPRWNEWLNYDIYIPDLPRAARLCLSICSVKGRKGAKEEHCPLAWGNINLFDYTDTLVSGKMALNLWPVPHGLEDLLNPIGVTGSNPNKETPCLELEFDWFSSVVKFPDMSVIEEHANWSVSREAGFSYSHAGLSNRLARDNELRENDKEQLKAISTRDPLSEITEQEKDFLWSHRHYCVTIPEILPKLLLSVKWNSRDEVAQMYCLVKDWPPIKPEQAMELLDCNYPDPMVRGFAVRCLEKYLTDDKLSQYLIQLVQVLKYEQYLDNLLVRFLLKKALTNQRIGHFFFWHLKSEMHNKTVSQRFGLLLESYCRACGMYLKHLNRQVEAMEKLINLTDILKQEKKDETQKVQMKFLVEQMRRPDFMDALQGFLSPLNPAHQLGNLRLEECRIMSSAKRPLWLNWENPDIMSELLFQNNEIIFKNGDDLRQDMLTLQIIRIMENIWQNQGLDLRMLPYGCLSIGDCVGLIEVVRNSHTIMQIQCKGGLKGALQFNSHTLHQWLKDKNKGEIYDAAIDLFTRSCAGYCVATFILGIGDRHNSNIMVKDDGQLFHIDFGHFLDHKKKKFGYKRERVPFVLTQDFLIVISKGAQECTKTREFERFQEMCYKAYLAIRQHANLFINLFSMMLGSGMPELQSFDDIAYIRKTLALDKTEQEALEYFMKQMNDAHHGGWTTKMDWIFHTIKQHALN
T1 sequence (P27986 whole entry partner): as the sequence (P27986 whole entry partner) above

Work on OC(c1ccc(Cl)cc1)c1cc(-c2ccnc3sccc23)sc1-c1nnc[nH]1 (stereo not drawn) [Compound 57] yielded an IC50 [1] of 100 to 1000 nM and an IC50 [2] of 100 to 1000 nM.

CN1CCc2cc(Cl)ccc2C1c1cc(-c2ccncc2)sc1-c1ccn[nH]1 (stereo not drawn) [Compound 58, 6-Chloro-2-methyl-1-[2-(1H-pyrazol-5-yl)-5-pyridin-4-yl-3-thienyl]-1,2,3,4-tetrahydroisoquinoline] gave an IC50 [1] greater than 1000 nM and an IC50 [2] of 100 to 1000 nM.

Work on O[C@H](c1ccc(Cl)cc1)c1cc(-c2ccnnc2)sc1-c1nnc[nH]1 [Compound 59] yielded an IC50 [1] greater than 1000 nM and an IC50 [2] of less than 100 nM.

CC(=O)Nc1cc(-c2nc(C(O)c3ccc(Cl)cc3)c(-c3ncc[nH]3)s2)ccn1 (stereo not drawn) [Compound 60, N-{4-[4-[(4-chlorophenyl)(hydroxy)methyl]-5-(1H-imidazol-2-yl)-1,3-thiazol-2-yl]pyridin-2-yl}acetamide] showed an IC50 [1] greater than 1000 nM and an IC50 [2] of 100 to 1000 nM.

Cc1nn2ccc(CN3CCC(N)CC3)cc2c1-c1nc(Cc2ccc(Cl)cc2)c(-c2nnc[nH]2)s1 [Compound 61] showed an IC50 [1] of 100 to 1000 nM and an IC50 [2] of 100 to 1000 nM.

Compound CNc1cc(-c2cc(C(O)c3ccc(Cl)cc3)c(-c3nnc[nH]3)s2)ccn1 (stereo not drawn) [Compound 62] has an IC50 [1] greater than 1000 nM and an IC50 [2] of 100 to 1000 nM.

Compound CNc1cc(-c2nc(Cc3ccc(Cl)cc3)c(-c3nnc[nH]3)s2)ccn1 [Compound 63] has an IC50 [1] greater than 1000 nM and an IC50 [2] greater than 1000 nM.

O=C1CCc2c(-c3cc(C(O)c4ccc(Cl)cc4)c(-c4nnc[nH]4)s3)ccnc2N1 (stereo not drawn) [Compound 64] gave an IC50 [1] of 100 to 1000 nM and an IC50 [2] of 100 to 1000 nM.

Compound CN(C)[C@@H](c1ccc(Cl)cc1)c1cc(-c2ccncc2)sc1-c1nnc[nH]1 [Compound 65] has an IC50 [1] greater than 1000 nM and an IC50 [2] of less than 100 nM.

Clc1ccc(Cc2nc(-c3ccncc3)sc2-c2cnc[nH]2)cc1 [Compound 66, 4-(4-chlorobenzyl)-5-(1H-imidazol-5-yl)-2-(pyridin-4-yl)thiazole] was tested, and the IC50 [1] was greater than 1000 nM and the IC50 [2] was less than 100 nM.

With CC(=O)Nc1cc(-c2nc(Cc3ccccc3Cl)c(-c3ncc[nH]3)s2)ccn1 [Compound 67] the IC50 [1] was 100 to 1000 nM and the IC50 [2] was greater than 1000 nM.

OC(c1ccc(Cl)cc1)c1cc(-c2ncncc2F)sc1-c1nnc[nH]1 (stereo not drawn) [Compound 68] showed an IC50 [1] greater than 1000 nM and an IC50 [2] of 100 to 1000 nM.

With CC(=O)Nc1cc(-c2sc(-c3nnc[nH]3)c(Cc3ccc(Cl)cc3)c2C#N)ccn1 [Compound 71, N-{4-[4-(4-chlorobenzyl)-3-cyano-5-(4H-1,2,4-triazol-3-yl)-2-thienyl]pyridin-2-yl}acetamide] the IC50 [1] was 100 to 1000 nM and the IC50 [2] was 100 to 1000 nM.

Cc1nn2ccc(CN3CCNCC3)cc2c1-c1nc(Cc2ccc(Cl)cc2)c(-c2nnc[nH]2)s1 [Compound 72, 3-[4-(4-chlorobenzyl)-5-(4H-1,2,4-triazol-3-yl)-1,3-thiazol-2-yl]-2-methyl-5-(piperazin-1-ylmethyl)pyrazolo[1,5-a]pyridine] was tested, and the IC50 [1] was 100 to 1000 nM and the IC50 [2] was 100 to 1000 nM.

CC(=O)Nc1cc(-c2nc(Cc3ccc(Cl)cc3)c(-c3ncc[nH]3)s2)ccn1 [Compound 73] was tested, and the IC50 [1] was greater than 1000 nM and the IC50 [2] was 100 to 1000 nM.

Work on CC(=O)Nc1cc(-c2sc(C(=O)O)c(Cc3ccc(Cl)cc3)c2C#N)ccn1 [Compound 74] yielded an IC50 [1] of 100 to 1000 nM and an IC50 [2] of 100 to 1000 nM.

In the case of Nc1cc(-c2cc(C(O)c3ccc(Cl)cc3)c(-c3nnc[nH]3)s2)ccn1 (stereo not drawn) [Compound 75], the IC50 [1] is reported as greater than 1000 nM and the IC50 [2] is reported as less than 100 nM.

Clc1ccc(Cc2nc(-c3ccncc3)sc2-c2nnc[nH]2)cc1 [Compound 76, 4-(4-chlorobenzyl)-2-(pyridin-4-yl)-5-(4H-1,2,4-triazol-3-yl)thiazole] showed an IC50 [1] greater than 1000 nM and an IC50 [2] of 100 to 1000 nM.

With O[C@H](c1ccc(Cl)cc1)c1cc(-c2ccncc2)sc1-c1nnc[nH]1 [Compound 77] the IC50 [1] was greater than 1000 nM and the IC50 [2] was less than 100 nM.

Fc1cnccc1-c1nc(Cc2ccc(Cl)cc2)c(-c2nc[nH]n2)s1 [Compound 78] was tested, and the IC50 [1] was greater than 1000 nM and the IC50 [2] was greater than 1000 nM.

In the case of OC(c1ccc(Cl)cc1)c1cc(-c2ccnnc2)sc1-c1nnc[nH]1 (stereo not drawn) [Compound 79], the IC50 [1] is reported as greater than 1000 nM and the IC50 [2] is reported as 100 to 1000 nM.

Work on O=C(O)c1sc(-c2ccncc2)nc1Cc1ccc(Cl)cc1 [Compound 80, 4-(4-chlorobenzyl)-2-(pyridin-4-yl)thiazole-5-carboxylic acid] yielded an IC50 [1] greater than 1000 nM and an IC50 [2] of less than 100 nM.

Compound N#Cc1cc(-c2cc(C(O)c3ccc(Cl)cc3)c(-c3nnc[nH]3)s2)ccn1 (stereo not drawn) [Compound 81, 4-(4-((4-chlorophenyl)(hydroxy)methyl)-5-(4H-1,2,4-triazol-3-yl)thiophen-2-yl)picolinonitrile] has an IC50 [1] greater than 1000 nM and an IC50 [2] of less than 100 nM.

In the case of Cc1nn2ccc(CNCCNC(=O)OC(C)(C)C)cc2c1-c1nc(Cc2ccc(Cl)cc2)c(-c2nnc[nH]2)s1 [Compound 82], the IC50 [1] is reported as 100 to 1000 nM and the IC50 [2] is reported as 100 to 1000 nM.

For Cc1nn2ccc(CN(CCN)Cc3ccccc3)cc2c1-c1nc(Cc2ccc(Cl)cc2)c(-c2nnc[nH]2)s1 [Compound 83], the IC50 [1] was 100 to 1000 nM and the IC50 [2] was 100 to 1000 nM.

For O[C@@H](c1ccc(Cl)cc1)c1cc(-c2ccncc2)sc1-c1nnc[nH]1 [Compound 84], the IC50 [1] was greater than 1000 nM and the IC50 [2] was 100 to 1000 nM.

Compound COc1ccc(C(O)c2cc(-c3ccncc3)sc2-c2nnc[nH]2)cc1 (stereo not drawn) [Compound 85, (4-methoxyphenyl)[5-pyridin-4-yl-2-(4H-1,2,4-triazol-3-yl)-3-thienyl]methanol] has an IC50 [1] greater than 1000 nM and an IC50 [2] of less than 100 nM.

Compound CC(=O)Nc1cc(-c2cc(C(c3ccc(Cl)cc3)N(C)C)c(-c3nnc[nH]3)s2)ccn1 (stereo not drawn) [Compound 86] has an IC50 [1] of 100 to 1000 nM and an IC50 [2] of less than 100 nM.

For c1ccc2cc(Cc3nc(-c4ccncc4)sc3-c3nnc[nH]3)ccc2c1 [Compound 87], the IC50 [1] was greater than 1000 nM and the IC50 [2] was less than 100 nM.

With N#Cc1c(-c2ccnnc2)sc(-c2nnc[nH]2)c1Cc1ccc2ccccc2c1 [Compound 88, 4-(2-naphthylmethyl)-2-pyridazin-4-yl-5-(4H-1,2,4-triazol-3-yl)thiophene-3-carbonitrile] the IC50 [1] was greater than 1000 nM and the IC50 [2] was less than 100 nM.

Compound N#Cc1c(-c2ccnnc2)sc(-c2nnc[nH]2)c1Cc1ccc(Cl)cc1 [Compound 89] has an IC50 [1] greater than 1000 nM and an IC50 [2] of 100 to 1000 nM.

CC(=O)Nc1cc(-c2cc(C(c3ccc(Cl)cc3)N3CCC3)c(-c3nnc[nH]3)s2)ccn1 (stereo not drawn) [Compound 90] gave an IC50 [1] of 100 to 1000 nM and an IC50 [2] of less than 100 nM.

For O=c1ccnc(-c2sc(-c3ccncc3)nc2Cc2ccc(Cl)cc2)[nH]1 [Compound 92, 2-(4-(4-chlorobenzyl)-2-(pyridin-4-yl)thiazol-5-yl)pyrimidin-4(3H)-one], the IC50 [1] was greater than 1000 nM and the IC50 [2] was less than 100 nM.

O=C(O)c1sc(N2CCOCC2)nc1Cc1ccc(Cl)cc1F [Compound 101] gave an inhibition at 1.1 µM [1, 3] of 30% and an inhibition at 1.1 µM [2, 4] of 105%.

For O=C(O)c1sc(N2CCOCC2)nc1Cc1ccc2c(c1)OCCO2 [Compound 110, 4-(2,3-dihydro-1,4-benzodioxin-6-ylmethyl)-2-(morpholin-4-yl)-1,3-thiazole-5-carboxylic acid], the inhibition at 1.1 µM [1, 3] was 5% and the inhibition at 1.1 µM [2, 4] was 41%.

For CC(=O)Nc1cc(-c2cc(C(O)(c3ccc(Cl)cc3)C3CCN(C)CC3)c(-c3nnc[nH]3)s2)ccn1 (stereo not drawn) [Compound 237, N-(4-{4-[(4-chlorophenyl)(hydroxy)(1-methylpiperidin-4-yl)methyl]-5-(4H-1,2,4-triazol-3-yl)-2-thienyl}pyridin-2-yl)acetamide], the inhibition at 1.1 µM ([1]; concentration not given, b1387 states 1.1 μM for PI3K α and β, read-out: p110 alpha Percent Inhibition) was 61% and the inhibition at 1.1 µM ([2]; concentration not given, b1387 states 1.1 μM for PI3K α and β, read-out: p110 beta Percent Inhibition) was 89%.

From patent publication US8796268B2, “Heteroaryls and uses thereof” (Millennium Pharmaceuticals, Inc., priority 2010, dated 2014)
